From patent US20130252930A1 (BIOMARIN PHARMACEUTICAL INC., priority 2010, published 2013)
Like-named read-outs stand apart in the source and are kept apart here.

Molecular target: T1, CYP17 (human testicular microsome) (Homo sapiens, UniProt P05093)
T1 construct: using microsomal fraction from human testis (Celsis Cat #S00110) as the enzyme source; tissue Celsis S00110; host or cells: human testis microsomal fraction
T1 sequence (P05093 1-508): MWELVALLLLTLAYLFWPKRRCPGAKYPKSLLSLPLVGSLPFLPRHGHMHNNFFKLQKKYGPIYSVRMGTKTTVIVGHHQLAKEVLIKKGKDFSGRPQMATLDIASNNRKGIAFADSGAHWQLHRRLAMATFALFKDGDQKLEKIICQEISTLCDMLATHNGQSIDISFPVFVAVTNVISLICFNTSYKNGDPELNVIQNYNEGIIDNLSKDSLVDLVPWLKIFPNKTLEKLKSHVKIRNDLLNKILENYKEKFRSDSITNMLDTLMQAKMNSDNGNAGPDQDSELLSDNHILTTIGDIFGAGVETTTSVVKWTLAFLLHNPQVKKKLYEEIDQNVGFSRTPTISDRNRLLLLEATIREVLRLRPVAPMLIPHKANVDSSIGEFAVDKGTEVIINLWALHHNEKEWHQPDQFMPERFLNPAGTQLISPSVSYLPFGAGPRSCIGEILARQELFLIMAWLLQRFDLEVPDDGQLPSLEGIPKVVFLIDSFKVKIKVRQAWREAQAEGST
Assay: CYP17 enzymatic assay (% inhibition at 1 nM) (Biological Example 12)
Assay type: biochemical
Conditions: compound at 1 nM

[1] = read-out: CYP17 enzymatic assay % inhibition at 1 nM (Biological Example No. 12)
[2] = read-out: Biological Example No. 12: CYP17 enzymatic assay % inhibition at 1 nM

| Structure (SMILES) | inhibition at 0.001 µM [1] [%] | inhibition at 0.001 µM [2] [%] |
| --- | --- | --- |
| COC1CC[C@@]2(C)C(=CCC3C2CC[C@]2(C)C(c4cncc(C)c4)=CCC32)C1 (stereo partly drawn) [Compound 454, 3-((10R,13S)-3-methoxy-10,13-dimethyl-2,3,4,7,8,9,10,11,12,13,14,15-dodecahydro-1H-cyclopenta[a]phenanthren-17-yl)-5-methylpyridine] | < 10 | – |
| CCc1cncc(C2=CC[C@H]3[C@@H]4CC[C@H]5C[C@@H](OC)CC[C@]5(C)[C@H]4CC[C@]23C)c1 [Compound 455, 3-ethyl-5-((3S,5S,8R,9S,10S,13S,14S)-3-methoxy-10,13-dimethyl-2,3,4,5,6,7,8,9,10,11,12,13,14,15-tetradecahydro-1H-cyclopenta[a]phenanthren-17-yl)pyridine] | 10 to 50 | – |
| COc1cncc(C2=CC[C@H]3[C@@H]4CC[C@H]5C[C@@H](OC)CC[C@]5(C)[C@H]4CC[C@]23C)c1 [Compound 456, 3-methoxy-5-((3S,5S,8R,9S,10S,13S,14S)-3-methoxy-10,13-dimethyl-2,3,4,5,6,7,8,9,10,11,12,13,14,15-tetradecahydro-1H-cyclopenta[a]phenanthren-17-yl)pyridine] | 10 to 50 | – |
| CCOc1cncc(C2=CC[C@H]3[C@@H]4CC[C@H]5C[C@@H](OC)CC[C@]5(C)[C@H]4CC[C@]23C)c1 [Compound 457, 3-ethoxy-5-((3S,5S,8R,9S,10S,13S,14S)-3-methoxy-10,13-dimethyl-2,3,4,5,6,7,8,9,10,11,12,13,14,15-tetradecahydro-1H-cyclopenta[a]phenanthren-17-yl)pyridine] | 10 to 50 | – |
| CO[C@H]1CC[C@@]2(C)[C@@H](CC[C@@H]3[C@@H]2CC[C@]2(C)C(c4cnccc4C)=CC[C@@H]32)C1 [Compound 458, 3-((3S,5S,8R,9S,10S,13S,14S)-3-methoxy-10,13-dimethyl-2,3,4,5,6,7,8,9,10,11,12,13,14,15-tetradecahydro-1H-cyclopenta[a]phenanthren-17-yl)-4-methylpyridine] | 10 to 50 | – |
| CO[C@H]1CC[C@@]2(C)C(=CCC3C2CC[C@]2(C)C(n4ccnc4)=CCC32)C1 (stereo partly drawn) [Compound 459, 1-((3S,10R,13S)-3-methoxy-10,13-dimethyl-2,3,4,7,8,9,10,11,12,13,14,15-dodecahydro-1H-cyclopenta[a]phenanthren-17-yl)-1H-imidazole] | 10 to 50 | – |
| Cc1cncc(C2=CC=C3[C@@H]4CCC5CNC(=O)CC[C@]5(C)[C@H]4CC[C@]23C)c1 (stereo partly drawn) [Compound 461, (5aR,5bS,7aS,10bR)-5a,7a-dimethyl-8-(5-methylpyridin-3-yl)-1,2,5,5a,5b,6,7,7a,10b,11,12,12a-dodecahydrocyclopenta[5,6]naphtho[2,1-c]azepin-3(4H)-one] | 10 to 50 | – |
| Cc1ccncc1C1=CC=C2C3CCC4CC(=O)NCC[C@]4(C)C3CC[C@]12C (stereo partly drawn) [Compound 463, (5aS,7aS)-5a,7a-dimethyl-8-(4-methylpyridin-3-yl)-3,4,5,5a,5b,6,7,7a,10b,11,12,12a-dodecahydrocyclopenta[5,6]naphtho[1,2-d]azepin-2(1H)-one] | 10 to 50 | – |
| Cc1ccncc1C1=CC=C2C3CCC4CNC(=O)CC[C@]4(C)C3CC[C@]12C (stereo partly drawn) [Compound 464, (5aR,7aS)-5a,7a-dimethyl-8-(4-methylpyridin-3-yl)-1,2,5,5a,5b,6,7,7a,10b,11,12,12a-dodecahydrocyclopenta[5,6]naphtho[2,1-c]azepin-3(4H)-one] | 10 to 50 | – |
| CCc1ccncc1C1=CC=C2C3CCC4C[C@@H](O)CC[C@]4(C)C3CC[C@]12C (stereo partly drawn) [Compound 465, (3S,10S,13S)-17-(4-ethylpyridin-3-yl)-10,13-dimethyl-2,3,4,5,6,7,8,9,10,11,12,13-dodecahydro-1H-cyclopenta[a]phenanthren-3-ol] | < 10 | – |
| CC(=O)O[C@H]1CC[C@@]2(C)C(CCC3C4=CC=C(c5cnccc5C)[C@@]4(C)CCC32)C1 (stereo partly drawn) [Compound 466, (3S,10S,13S)-10,13-dimethyl-17-(4-methylpyridin-3-yl)-2,3,4,5,6,7,8,9,10,11,12,13-dodecahydro-1H-cyclopenta[a]phenanthren-3-yl acetate] | 10 to 50 | – |
| CCc1ccncc1C1=CC=C2C3CCC4CC(=O)NCC[C@]4(C)C3CC[C@]12C (stereo partly drawn) [Compound 467, (5aS,7aS)-8-(4-ethylpyridin-3-yl)-5a,7a-dimethyl-3,4,5,5a,5b,6,7,7a,10b,11,12,12a-dodecahydrocyclopenta[5,6]naphtho[1,2-d]azepin-2(1H)-one] | 10 to 50 | – |
| CCc1ccncc1C1=CC=C2C3CCC4CNC(=O)CC[C@]4(C)C3CC[C@]12C (stereo partly drawn) [Compound 468, (5aR,7aS)-8-(4-ethylpyridin-3-yl)-5a,7a-dimethyl-1,2,5,5a,5b,6,7,7a,10b,11,12,12a-dodecahydrocyclopenta[5,6]naphtho[2,1-c]azepin-3(4H)-one] | 10 to 50 | – |
| CCc1ccncc1C1=CC[C@H]2[C@@H]3CC[C@H]4CC(=O)NCC[C@]4(C)[C@H]3CC[C@]12C [Compound 469, (5aS,5bS,7aS,10aS,10bR,12aS)-8-(4-ethylpyridin-3-yl)-5a,7a-dimethyl-3,4,5,5a,5b,6,7,7a,10,10a,10b,11,12,12a-tetradecahydrocyclopenta[5,6]naphtho[1,2-d]azepin-2(1H)-one] | 10 to 50 | – |
| CCc1ccncc1C1=CC[C@H]2[C@@H]3CC[C@H]4CNC(=O)CC[C@]4(C)[C@H]3CC[C@]12C [Compound 470, (5aR,5bS,7aS,10aS,10bR,12aR)-8-(4-ethylpyridin-3-yl)-5a,7a-dimethyl-1,2,5,5a,5b,6,7,7a,10,10a,10b,11,12,12a-tetradecahydrocyclopenta[5,6]naphtho[2,1-c]azepin-3(4H)-one] | < 10 | – |
| C[C@]12CC[C@H](O)CC1CCC1C2CC[C@]2(C)C(c3ccc[n+]([O-])c3)CCC12 (stereo partly drawn) [Compound 472, 3-((3S,10S,13S)-3-hydroxy-10,13-dimethylhexadecahydro-1H-cyclopenta[a]phenanthren-17-yl)pyridine 1-oxide] | 10 to 50 | – |
| C[C@]12CC[C@H](O)CC1CCC1C2CC[C@]2(C)C(c3cccnc3)CCC12 (stereo partly drawn) [Compound 473, (3S,10S,13S)-10,13-dimethyl-17-(pyridin-3-yl)hexadecahydro-1H-cyclopenta[a]phenanthren-3-ol] | < 10 | – |
| C[C@]12CCC3(CO3)CC1CCC1C2CC[C@]2(C)C(c3cccnc3)=CCC12 (stereo partly drawn) [Compound 475, 3-((10S,13S)-10,13-dimethyl-1,2,4,5,6,7,8,9,10,11,12,13,14,15-tetradecahydrospiro[cyclopenta[a]phenanthrene-3,2′-oxiran]-17-yl)pyridine] | – | 10 to 50 |
| C[C@]12CCC3(CCC(=O)O3)CC1CCC1C2CC[C@]2(C)C(c3cccnc3)=CCC12 (stereo partly drawn) [Compound 477, (10S,13S)-10,13-dimethyl-17-(pyridin-3-yl)-1,2,4,5,6,7,8,9,10,11,12,13,14,15-tetradecahydro-3′H-spiro[cyclopenta[a]phenanthrene-3,2′-furan]-5′(4′H)-one] | – | < 10 |
| CCNC(=O)N[C@@H]1CC[C@@]2(C)C(=CCC3C2CC[C@]2(C)C(c4cncc(F)c4)=CCC32)C1 (stereo partly drawn) [Compound 478, 1-ethyl-3-((3R,10R,13S)-17-(5-fluoropyridin-3-yl)-10,13-dimethyl-2,3,4,7,8,9,10,11,12,13,14,15-dodecahydro-1H-cyclopenta[a]phenanthren-3-yl)urea] | – | 10 to 50 |
